Experimental data reported in patent publication US12630573B2, “High-affinity Cu(I) ligands and methods of use thereof” (GEORGIA TECH RESEARCH CORPORATION, priority 2019, dated 2026).

Legend:
Format in all cases: binding
[1] = Molar ratio titration against BCA copper(I) complex; conditions: linear decrease in absorbance at 562 nm
Experimental: In a quartz cuvette with 1 cm path length, BCA (9.0 μL) was diluted from a 50 mM aqueous stock solution (dissolved by addition of KOH) into 3.0 mL of buffer (10 mM PIPES, 0.1 M KCl, pH 7.0, 25° C.). Furthermore, Cu(II)SO4 (5.0 μL) from a 30 mM stock solution) and sodium ascorbate (7.5 μL from a 60 mM stock solution) were added. After equilibration for 10 minutes, a UV-vis spectrum was recorded, and the solution was titrated in 1-10 μL aliquots with a 3 mM stock solution of phenPS in DMF or naphPS in DMSO. For phenPS, the endpoint occurred at 1.04 molar equivalents on the basis of the mass employed for stock solution preparation, consistent with incomplete removal of the solvent of crystallization as observed by ^1H NMR. An independent molar ratio titration against [Cu(I)MCL-2]PF6 confirmed the stock concentration as 2.88 mM rather than 3.0 mM, and the plotted Cu(I)/phenPS ratio is adjusted accordingly.

[2] = Spectrophotometric Cu(I) competition titration against BCS; conditions: pH 7.0, 10 mM PIPES, 0.1 M KCl, 25° C.
Experimental: An aqueous sodium bathocuproine disulfonate (BCS, Acros Organics) stock solution (60 mM) was prepared calibrated by competition titration against MCL-1 as previously described (Bagchi, P., et al., J. Am. Chem. Soc., 135(49) (2013)). BCS (1.50 mM), sodium ascorbate (150 μM) and CuSO4 (30 μM) were sequentially added via aqueous stock solutions to 3 mL of buffer (10 mM PIPES, 0.1 M KCl, pH 7.0) in a 1-cm path length cuvette equipped with magnetic stirring, and a UV-Vis absorption spectrum was recorded from 650-380 nm. PhenPS was added in 5 μM aliquots from a 2.88 mM stock solution in DMF and an absorption spectrum was acquired after a 2 min equilibration period following each aliquot. The titration was conducted in duplicate, and each dataset was analyzed by nonlinear least squares fitting over the spectral range from 650-400 nm using the Specfit software package from Spectrum Software Associates. The stability constant for naphPS was determined similarly except that the ligand was delivered from a 3.0 mM stock solution in DMSO and a 5-minute equilibration period was required to obtain a stable spectrum after each aliquot.
An aqueous sodium bathocuproine disulfonate (BCS, Acros Organics) stock solution (60 mM) was prepared and calibrated by competition titration against MCL-1 as previously described (Bagchi, P., et al., J. Am. Chem. Soc., 135(49) (2013)). […]

[3] = Molar ratio titration with [Cu(I)MCL-2]PF6; conditions: 10 mM PIPES, 0.1 M KCl, pH 7; fit 250-400 nm
Experimental: In a quartz cuvette with 1 cm path-length, a 50 μM aqueous solution of phenPS was prepared by diluting the ligand from a stock solution (3 mM in DMF) into 2.95 mL of aqueous buffer (10 mM PIPES, 0.1 M KCl, pH 7) under rapid stirring. After recording a UV-vis absorption spectrum from 240 to 500 nm, [Cu(I)MCL-2]PF6 (3 mM stock solution in water) was added in 5 μM aliquots up to 95 μM. The absorption spectrum was recorded after a 1 min mixing period following each aliquot. To derive an accurate reference spectrum of Cu(I)-MCL-2 complex, a separate titration was conducted using pure DMF in place of the phenPS stock solution. The exact concentration of the phenPS stock solution was calibrated against [Cu(I)MCL-2]PF6 by plotting the apparent fractional saturation of the ligand, calculated as f=(A−A0)/(Asat−A0) where A corresponds to the absorbance at 290 nm and the subscripts 0 and sat refer to the spectra at 0 and 50 μM Cu(I), versus nominal molar equivalents of Cu(I) for the first 10 data points (0-0.9 molar equivalents). After concentration correction and subtraction of the DMF background absorption, non-linear least-squares fitting of the titration dataset over the wavelength range 250-400 nm was performed using a fixed log β11 of 21.2 for Cu(I)-phenPS to yield a log β12=31.86±0.07 (log K2=10.66±0.07) for Cu(I)2phenPS.

For CP(C)(=S)CP(CP(C)(C)=S)c1cccc2cccc(P(CP(C)(C)=S)CP(C)(C)=S)c12 [naphPS, 1,8-Bis(bis(dimethylphosphorothioylmethyl)phosphino)naphthalene], the “removal of Cu(I) from BCA complex” value [1] was “quantitative removal of Cu(I)”.

In the case of CP(C)(=S)CP(CP(C)(C)=S)c1ccccc1P(CP(C)(C)=S)CP(C)(C)=S [phenPS, 1,2-Bis(bis(dimethylphosphorothioylmethyl)phosphino)benzene], the “dissociation constant Kd of Cu(I) complex” value [2] is reported as 0.6 zM, the “removal of Cu(I) from BCA complex” value [1] is reported as “quantitative removal of Cu(I)” and the “log β12 for Cu(I)2phenPS” value [3] is reported as 31.86±0.07.
